Experimental data taken from patent US6352977B1, “Substituted β-alanines” (Aventis Pharma Limited, priority 1998, dated 2002).

## COc1cc(CC(=O)N(C)CC(=O)N(CCCN2CCCC2=O)CCC(=O)O)ccc1NC(=O)Nc1ccccc1C
  melting point: 73 to 76 °C

## COc1cc(CC(=O)N(C)CC(=O)N(CCC(=O)O)Cc2ccc(OC)c(OC)c2)ccc1NC(=O)Nc1ccccc1C
  melting point: 183 to 187 °C
